Assay results published in US20080214533A1, “Cyclic Iminocarbamates And Their Use” (BAYER HEALTHCARE AG, priority 2004, published 2008).

These molecules were tested against human factor Xa (FXa) (Homo sapiens, UniProt P00742) (assay: Determination of the factor Xa inhibition (chromogenic substrate)). Conditions: chromogenic substrate Pefachrome FXa, 25° C., extinction at 405 nm.
Type: biochemical
Protocol: The enzymatic activity of human factor Xa (FXa) is measured using the conversion of a chromogenic substrate specific for FXa. Factor Xa cleaves p-nitroaniline from the chromogenic substrate. The determinations are carried out in microtitre plates as follows:
The test substances, in various concentrations, are dissolved in DMSO and incubated for 10 minutes at 25° C. with human FXa ([…] dissolved in 50 mmol/l of Tris buffer [C,C,C-tris(hydroxymethyl)aminomethane], 150 mmol/l of NaCl, 0.1% BSA [bovine serum albumin], pH=8.3). Pure DMSO is used as control. The chromogenic substrate (150 μmol/l Pefachrome® FXa from Pentapharm) is then added. After an incubation time of 20 minutes at 25° C., the extinction at 405 nm is determined.

Chain of human factor Xa (FXa) (P00742 235-488 limits assumed): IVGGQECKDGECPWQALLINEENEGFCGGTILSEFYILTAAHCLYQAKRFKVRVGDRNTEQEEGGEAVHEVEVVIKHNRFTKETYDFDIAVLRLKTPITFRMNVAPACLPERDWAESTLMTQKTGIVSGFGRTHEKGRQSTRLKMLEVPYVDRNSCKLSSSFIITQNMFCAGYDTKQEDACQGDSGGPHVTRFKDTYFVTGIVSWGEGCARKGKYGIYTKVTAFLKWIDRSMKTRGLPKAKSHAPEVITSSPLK
Chain of human factor Xa (FXa) (P00742 41-179 partner limits assumed): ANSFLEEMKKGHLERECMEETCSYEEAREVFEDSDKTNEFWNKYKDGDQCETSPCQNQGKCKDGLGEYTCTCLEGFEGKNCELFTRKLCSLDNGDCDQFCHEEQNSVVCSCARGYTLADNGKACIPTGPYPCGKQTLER

IC50 [nM] | Compound
0.64 | N=C1OCCN1c1ccc(NC(=O)c2nccnc2C(=O)Nc2ccc(Cl)cn2)cc1 [Example 1, N-(5-Chloropyridin-2-yl)-N′-[4-(2-imino-1,3-oxazolidin-3-yl)phenyl]pyrazine-2,3-dicarboxamide methanesulphonate]
2.6 | N=C1OCCCN1c1ccc(NC(=O)c2nccnc2C(=O)Nc2ccc(Cl)cn2)cc1 [Example 5, N-(5-Chloropyridin-2-yl)-N′-[4-(2-imino-1,3-oxazinan-3-yl)phenyl]pyrazine-2,3-dicarboxamide methanesulphonate]
0.3 | Cc1nc(C(=O)Nc2ccc(Cl)cn2)c(C(=O)Nc2ccc(N3CCOC3=N)cc2)s1 [Example 12, N^4-(5-Chloropyridin-2-yl)-N^5-[4-(2-imino-1,3-oxazolidin-3-yl)phenyl]-2-methyl-1,3-thiazole-4,5-dicarboxamide methanesulphonate]
4.4 | Cc1nc(C(=O)Nc2ccc(N3CCOC3=N)cc2)c(C(=O)Nc2ccc(Cl)cn2)s1 [Example 13, N^5-(5-Chloropyridin-2-yl)-N^4-[4-(2-imino-1,3-oxazolidin-3-yl)phenyl]-2-methyl-1,3-thiazole-4,5-dicarboxamide methanesulphonate]
